Laboratory results: ChEMBL document CHEMBL4834406, “Isolation, Structure Elucidation, Semi-Synthesis, and Structural Modification of C19-Diterpenoid Alkaloids from Aconitum apetalum and Their Neuroprotective Activities” (J Nat Prod, 2021)
Active and inactive are the calls of the source. The rule behind the calls is not given here.

What was measured:
SH-SY5Y [1] = test: Cytotoxicity against H2O2 induced human neuroblastoma SH-SY5Y cells assessed as cell viability measured after 5 hrs by MTT assay; format: cell-based
SH-SY5Y [2] = test: Neuroprotective activity against H2O2-induced human SH-SY5Y cell damage assessed as protective rate at 50 uM pretreated for 1 hr followed by H2O2 addition measured after 4 hrs by MTT assay (reference value: 68.2 +/- 1.34%); format: functional; details: time 5 hrs
SH-SY5Y [3] = test: Inhibition of ROS production in H2O2-induced human SH-SY5Y cells at 50 uM pretreated for 1 hr followed by H2O2 addition measured after 4 hrs by DCFH-DA based flow cytometry; format: functional, cell-based; details: time 5.0 hrs
SH-SY5Y [4] = test: Neuroprotective activity against H2O2-induced human SH-SY5Y cell death assessed as reversal of apoptosis at 50 uM pretreated for 1 hr followed by H2O2 addition measured after 4 hrs by Hoechst 33258 based fluorescence microscopy; format: functional; details: time 5.0 hrs
SH-SY5Y [5] = test: Neuroprotective activity against H2O2-induced human SH-SY5Y cell death assessed as early apoptotic cells at 50 uM measured by Annexin V/PI double staining base flow cytometry analysis (reference value: 15.23%); format: functional, cell-based
SH-SY5Y [6] = test: Neuroprotective activity against H2O2-induced human SH-SY5Y cell death assessed as late apoptotic cells at 50 uM measured by Annexin V/PI double staining base flow cytometry analysis (reference value: 7.78%); format: functional, cell-based
SH-SY5Y [7] = test: Neuroprotective activity against H2O2-induced human SH-SY5Y cell death assessed as necrotic cells at 50 uM measured by Annexin V/PI double staining base flow cytometry analysis (reference value: 0.32%); format: functional, cell-based
SH-SY5Y [8] = test: Neuroprotective activity against H2O2-induced human SH-SY5Y cell apoptosis assessed as PARP protein expression at 50 uM measured by Western blot analysis relative to control; format: functional, cell-based
SH-SY5Y [9] = test: Neuroprotective activity against H2O2-induced human SH-SY5Y cell apoptosis assessed as caspase 3 protein expression at 50 uM measured by Western blot analysis relative to control; format: functional, cell-based
SH-SY5Y [10] = test: Neuroprotective activity against H2O2-induced human SH-SY5Y cell apoptosis assessed as Bcl-2 protein expression at 50 uM measured by Western blot analysis relative to control; format: functional, cell-based
SH-SY5Y [11] = test: Neuroprotective activity against H2O2-induced human SH-SY5Y cell death assessed as viable cells at 50 uM measured by Annexin V/PI double staining base flow cytometry analysis (reference value: 76.67%); format: functional; details: read-out: Activity
SH-SY5Y [12] = test: Neuroprotective activity against H2O2-induced human SH-SY5Y cell apoptosis assessed as Bax protein expression at 50 uM measured by Western blot analysis relative to control; format: functional, cell-based

CCN1C[C@]2(COC(=O)c3ccccc3NC(=O)c3ccccc3NC(=O)C(C)(C)O)CC[C@H](OC)C34C1C(C[C@@H]32)[C@@]1(O)C[C@H](OC)C2C[C@@H]4[C@@H]1[C@H]2O
Activity (SH-SY5Y [1]): Non-Toxic | Activity (SH-SY5Y [2]): 77.4% | inhibition (SH-SY5Y [3]): Active | Activity (SH-SY5Y [4]): Active | Activity (SH-SY5Y [5]): Active | Activity (SH-SY5Y [6]): Active | Activity (SH-SY5Y [7]): Active | Activity (SH-SY5Y [8]): Active | Activity (SH-SY5Y [9]): Active | Activity (SH-SY5Y [10]): Active | viability at 50 µM (SH-SY5Y [11]): 89.2% | Activity (SH-SY5Y [12]): Active

CCN1C[C@]2(COC(=O)c3ccccc3NC(=O)c3ccccc3NC(C)=O)CC[C@H](OC)C34C1C(C[C@@H]32)[C@@]1(O)C[C@H](OC)C2C[C@@H]4[C@@H]1[C@H]2OC(=O)c1ccccc1NC(=O)c1ccccc1NC(C)=O
Activity (SH-SY5Y [1]): Non-Toxic | Activity (SH-SY5Y [2]): 19.9%

CCN1C[C@]2(COC(=O)c3ccccc3NC(=O)c3ccccc3NC(=O)C(C)(C)O)CC[C@H](OC)C34C1C(C[C@@H]32)[C@@]1(O)C[C@H](OC)C2C[C@@H]4[C@@H]1[C@H]2OC(C)=O
Activity (SH-SY5Y [1]): Non-Toxic | Activity (SH-SY5Y [2]): 48.6%

CCN1C[C@]2(COC(=O)c3ccccc3NC(=O)c3ccccc3NC(=O)C(C)Cl)CC[C@H](OC)C34C1C(C[C@@H]32)[C@@]1(O)C[C@H](OC)C2C[C@@H]4[C@@H]1[C@H]2O (stereo partly specified)
Activity (SH-SY5Y [1]): Non-Toxic | Activity (SH-SY5Y [2]): 2.2%

CCCCC(=O)Nc1ccccc1C(=O)Nc1ccccc1C(=O)OC[C@@]12CC[C@H](OC)C34C(C(C[C@@H]31)[C@@]1(O)C[C@H](OC)C3C[C@@H]4[C@@H]1[C@H]3O)N(CC)C2
Activity (SH-SY5Y [1]): Non-Toxic | Activity (SH-SY5Y [2]): 11.7%

CCO[C@]12C[C@H](OC)C3C[C@H]([C@@H]1[C@H]3O)C13C4C2C[C@@H]1[C@@](COC(=O)c1ccccc1NC(=O)c1ccccc1NC(=O)C(C)(C)O)(CC[C@@H]3OC)CN4CC
Activity (SH-SY5Y [1]): Non-Toxic | Activity (SH-SY5Y [2]): 58.6%

CCCCCC(=O)Nc1ccccc1C(=O)Nc1ccccc1C(=O)OC[C@@]12CC[C@H](OC)C34C(C(C[C@@H]31)[C@@]1(O)C[C@H](OC)C3C[C@@H]4[C@@H]1[C@H]3O)N(CC)C2
Activity (SH-SY5Y [1]): Non-Toxic | Activity (SH-SY5Y [2]): 22.5%

CCCC(=O)Nc1ccccc1C(=O)Nc1ccccc1C(=O)OC[C@@]12CC[C@H](OC)C34C(C(C[C@@H]31)[C@@]1(O)C[C@H](OC)C3C[C@@H]4[C@@H]1[C@H]3OC(=O)c1ccccc1NC(=O)c1ccccc1NC(=O)CCC)N(CC)C2
Activity (SH-SY5Y [1]): Non-Toxic | Activity (SH-SY5Y [2]): 21.3%

CCN1C[C@]2(COC(=O)c3ccccc3NC(=O)c3ccccc3NC(=O)CCCCl)CC[C@H](OC)C34C1C(C[C@@H]32)[C@@]1(O)C[C@H](OC)C2C[C@@H]4[C@@H]1[C@H]2O
Activity (SH-SY5Y [1]): Non-Toxic | Activity (SH-SY5Y [2]): 15.6%

CCN1C[C@]2(COC(=O)c3ccccc3NC(=O)c3ccccc3NC(=O)C(Cl)(Cl)Cl)CC[C@H](OC)C34C1C(C[C@@H]32)[C@@]1(O)C[C@H](OC)C2C[C@@H]4[C@@H]1[C@H]2O
Activity (SH-SY5Y [1]): Non-Toxic | Activity (SH-SY5Y [2]): 14.5%

CCCCC(CC)C(=O)Nc1ccccc1C(=O)Nc1ccccc1C(=O)OC[C@@]12CC[C@H](OC)C34C(C(C[C@@H]31)[C@@]1(O)C[C@H](OC)C3C[C@@H]4[C@@H]1[C@H]3O)N(CC)C2 (stereo partly specified)
Activity (SH-SY5Y [1]): Non-Toxic | Activity (SH-SY5Y [2]): 6.5%

CCN1C[C@]2(COC(=O)c3ccccc3NC(=O)c3ccccc3NC(=O)c3ccccc3)CC[C@H](OC)C34C1C(C[C@@H]32)[C@@]1(O)C[C@H](OC)C2C[C@@H]4[C@@H]1[C@H]2OC(=O)c1ccccc1NC(=O)c1ccccc1NC(=O)c1ccccc1
Activity (SH-SY5Y [1]): Non-Toxic | Activity (SH-SY5Y [2]): 10.8%

CCN1C[C@]2(COC(=O)c3ccccc3NC(=O)c3ccccc3NC(=O)CC(C)C)CC[C@H](OC)C34C1C(C[C@@H]32)[C@@]1(O)C[C@H](OC)C2C[C@@H]4[C@@H]1[C@H]2OC(=O)c1ccccc1NC(=O)c1ccccc1NC(=O)CC(C)C
Activity (SH-SY5Y [1]): Non-Toxic | Activity (SH-SY5Y [2]): 13%

CCN1C[C@]2(COC(=O)c3ccccc3NC(=O)c3ccccc3NC(=O)C(C)(C)O)CC[C@H](OC)C34C1C(C[C@@H]32)[C@@]1(OC(C)=O)C[C@H](OC)C2C[C@@H]4[C@@H]1[C@H]2OC(C)=O
Activity (SH-SY5Y [1]): Non-Toxic | Activity (SH-SY5Y [2]): 54.2%

CCN1C[C@]2(COC(=O)c3ccccc3NC(=O)c3ccccc3NC(=O)C(C)(C)O)CC[C@H](OC)C34C1C(C[C@@H]32)[C@@]1(O)C[C@H](OC)C2C[C@@H]4[C@@H]1[C@H]2OC(=O)c1ccccc1NC(=O)c1ccccc1NC(=O)C(C)(C)O
Activity (SH-SY5Y [1]): Non-Toxic | Activity (SH-SY5Y [2]): 12.4%

CCCCC(=O)Nc1ccccc1C(=O)Nc1ccccc1C(=O)OC[C@@]12CC[C@H](OC)C34C(C(C[C@@H]31)[C@@]1(O)C[C@H](OC)C3C[C@@H]4[C@@H]1[C@H]3OC(=O)c1ccccc1NC(=O)c1ccccc1NC(=O)CCCC)N(CC)C2
Activity (SH-SY5Y [1]): Non-Toxic | Activity (SH-SY5Y [2]): 33%

CCN1C[C@]2(COC(=O)c3ccccc3NC(=O)c3ccccc3NC(=O)C(C)(O)CC)CC[C@H](OC)C34C1C(C[C@@H]32)[C@@]1(O)C[C@H](OC)C2C[C@@H]4[C@@H]1[C@H]2OC(C)=O (stereo partly specified)
Activity (SH-SY5Y [1]): Non-Toxic | Activity (SH-SY5Y [2]): 62.1%

CCN1C[C@]2(COC(=O)c3ccccc3NC(=O)c3ccccc3NC(=O)C(C)C)CC[C@H](OC)C34C1C(C[C@@H]32)[C@@]1(O)C[C@H](OC)C2C[C@@H]4[C@@H]1[C@H]2OC(=O)c1ccccc1NC(=O)c1ccccc1NC(=O)C(C)C
Activity (SH-SY5Y [1]): Non-Toxic | Activity (SH-SY5Y [2]): 5.5%
